These are literature values, as cited in patent publication US6642179B2, “Inhibition of vegetative growth” (priority 2000, dated 2003).

The subject of the data set is grass. Conditions: versus 5-acetamido-2-methyltrifluoromethanesulfonanilide.

In the case of `CC(=O)Nc1cc(NS(=O)(=O)C(F)(F)F)c(C)cc1C` [5-acetamido-2,4-dimethyltrifluoromethanesulfonanilide], the “effectiveness as grass growth regulator compared with 5-acetamido-2-methyltrifluoromethanesulfonanilide” value is “much more effective grass growth regulator”.
